Data taken from patent publication US20090304725A1, “Vaccine and Antigen Mimotopes Against Cancerous Diseases Associated with the Carcinoembryonic Antigen CEA” (Medizinische Universitat Wien, priority 2006, published 2009).
Bridge positions count the residues as written; N and C are the ends. Ends that are not written are not given here.

Key:
[1] = system: HT29 CEA overexpressing cells; experiment: Antibody-dependent cytotoxicity (ADCC) assay, CytoTox 96; type: cell-based; conditions: pooled fifth immune sera of immunized mice diluted 1:50; naive BALB/c spleen cells as effector cells
Protocol: (§1) FIG. 7: ADCC reaction in vitro. Effects of the antibody-dependent cytotoxicity. The reaction was determined against the CEA positive cell line HT 29 and against the CEA negative cell line SW 480. The CEA-MAP serum was used 1:50 (black columns; 1). The mice immunized with a control-MAP (2) or alum alone (3) and the Col-1 antibody (4) were used as negative controls.
(§2) Complement-dependent cytotoxicity (CDC) and antibody-dependent-cytotoxicity (ADCC) effectivity of the antibodies induced by mimotope vaccination were measured with the CytoTox 96 Nonradioactive Cytotoxicity assay (Promega, Madison, Wis.). HT29 CEA overexpressing cells were used as positive target cells. SW480 CEA-negative colon cancer cells served as a negative target control cell line. The number of both target cells was optimized to 2×10^5 cells/ml. For CDC reactions (FIG. 6), pooled fifth immune sera were diluted 1:50 (1) or 1:100 (2) in CytoTox 96 assay medium. Additionally, the antibody Col-1 (3), an IgG2a (4) and an IgM (5) antibody (Sigma, Vienna, Austria) served as negative controls. Spleen cells of naïve BALB/c mice were prepared by mashing the spleen and lysing the erythrocytes with ammonium chloride and used as effector cells. […] All assay procedures and readouts were done as described in the manufacturers description. […] The results of the cytotoxicity was calculated as follows: […]

[2] = system: HT29 CEA overexpressing cells; experiment: Complement-dependent cytotoxicity (CDC) assay, CytoTox 96; type: cell-based; conditions: highest value corrected to 100%
Protocol: (§3) FIG. 6: CDC reaction in vitro. Effects of the mimotope induced antibodies in mediating complement-dependent cytotoxicity. The reaction was determined against the CEA positive cell line HT 29 and against the CEA negative cell line SW 480. Mouse immune sera in different concentrations were tested on the two cell lines. Sera from CEA-MAM immunized mice were used 1:50 (black columns; 1) and 1:100 (white column; 2). The antibody Col-1 (3), the isotype control antibodies IgG2a (4) and IgM (5) were used as negative controls.
as §2, with “controls.” for “controls. Spleen cells of naïve BALB/c mice were prepared by mashing the spleen and lysing the erythrocytes with ammonium chloride and used as effector cells.”

[3] = system: SW480 CEA-negative colon cancer cells; experiment: Cytotoxicity assay on CEA-negative control cell line; type: cell-based; conditions: sera of immunized mice
Protocol: as §3, §1
Complement-dependent cytotoxicity (CDC) and antibody-dependent-cytotoxicity (ADCC) effectivity of the antibodies induced by mimotope vaccination were measured with the CytoTox 96 Nonradioactive Cytotoxicity assay (Promega, Madison, Wis.). HT29 CEA overexpressing cells were used as positive target cells. […] All assay procedures and readouts were done as described in the manufacturers description. […] The results of the cytotoxicity was calculated as follows: […]

[4] = system: CEA antigen binding to anti-CEA antibody Col-1; experiment: Mimicry test, competitive ELISA on coated CEA antigen with Col-1; design: species or system human; conditions: phages at 5*10^10, 1*10^10, 1*10^9 particles per ml, simultaneously with Col-1
Protocol: FIG. 3: Mimicry analysis in ELISA competition assay. Coated CEA antigen is detected by Col-1 antibody, rendering a maximal signal of 1,4. Simultaneous incubation was done with titrated phage clones (white columns highest, grey: medium, black: least concentration of phage clones). Bound Col-1 was detected with anti-mouse IgG-peroxidase labelled. X-axis: clone names, Y-axis: colour intensity at OD450-630 nm.
The CEA antigen (human purified; Sigma, St. Louis) was used for coating ELISA plates. After blocking and washing, mimotopes phages were added to wells in three concentrations (5*10^10, 1*10^10, 1*10^9 particles per ml) simultaneously with antibody Col-1. In a final step, bound Col-1 antibody was detected by a peroxidase-labeled anti-mouse antibody. TMB substrate (BD Biosciences, San Diego, Calif.) was added for development of the colour and signal intensity measured in ELISA reader at OD450-630. […] This assay evidenced that selected mimotopes are mimics of the Col-1 epitope on CEA antigen.

[5] = molecular target: CEA antigen (human purified; Sigma, St. Louis) (human) (UniProt P06731); experiment: ELISA, CEA coated, bound Col-1 detected with anti-mouse IgG-peroxidase (FIG. 3)
UniProt P06731, sequence (P06731 35-685 limits assumed): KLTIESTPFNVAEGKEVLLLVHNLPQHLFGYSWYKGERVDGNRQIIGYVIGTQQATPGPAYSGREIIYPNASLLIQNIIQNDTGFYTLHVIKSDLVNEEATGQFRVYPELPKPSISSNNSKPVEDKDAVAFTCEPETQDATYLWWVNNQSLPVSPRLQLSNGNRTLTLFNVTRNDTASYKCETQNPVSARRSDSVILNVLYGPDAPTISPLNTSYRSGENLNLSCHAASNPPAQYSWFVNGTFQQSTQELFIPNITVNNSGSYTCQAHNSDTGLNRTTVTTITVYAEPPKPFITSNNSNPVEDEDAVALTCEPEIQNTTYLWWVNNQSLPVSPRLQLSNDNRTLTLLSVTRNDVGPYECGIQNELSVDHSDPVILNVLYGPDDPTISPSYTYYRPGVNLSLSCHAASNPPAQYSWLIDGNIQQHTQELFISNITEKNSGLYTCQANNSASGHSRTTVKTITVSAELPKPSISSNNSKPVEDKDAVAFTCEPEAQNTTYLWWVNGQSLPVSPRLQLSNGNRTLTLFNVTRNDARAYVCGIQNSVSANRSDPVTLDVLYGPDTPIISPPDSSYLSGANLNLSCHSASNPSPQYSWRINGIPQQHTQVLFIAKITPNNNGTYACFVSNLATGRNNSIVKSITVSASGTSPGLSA

## CC(C)C[C@H](NC(=O)CNC(=O)CNC(=O)[C@H](CCCNC(=N)N)NC(=O)[C@@H](N)CC(=O)O)C(=O)N[C@@H](Cc1c[nH]c2ccccc12)C(=O)N[C@@H](CCCCN)C(=O)N[C@H](C(=O)N1CCC[C@H]1C(=O)NCCCC[C@H](NC(=O)[C@@H]1CCCN1C(=O)[C@@H](NC(=O)[C@H](CCCCN)NC(=O)[C@H](Cc1c[nH]c2ccccc12)NC(=O)[C@H](CC(C)C)NC(=O)CNC(=O)CNC(=O)[C@H](CCCNC(=N)N)NC(=O)[C@@H](N)CC(=O)O)[C@@H](C)O)C(=O)NCCCC[C@H](NC(=O)[C@H](CCCCNC(=O)[C@@H]1CCCN1C(=O)[C@@H](NC(=O)[C@H](CCCCN)NC(=O)[C@H](Cc1c[nH]c2ccccc12)NC(=O)[C@H](CC(C)C)NC(=O)CNC(=O)CNC(=O)[C@H](CCCNC(=N)N)NC(=O)[C@@H](N)CC(=O)O)[C@@H](C)O)NC(=O)[C@@H]1CCCN1C(=O)[C@@H](NC(=O)[C@H](CCCCN)NC(=O)[C@H](Cc1c[nH]c2ccccc12)NC(=O)[C@H](CC(C)C)NC(=O)CNC(=O)CNC(=O)[C@H](CCCNC(=N)N)NC(=O)[C@@H](N)CC(=O)O)[C@@H](C)O)C(=O)NCC(=O)NCC(=O)N[C@@H](CSCC(=O)NCCCCCCNC(=O)CSC[C@H](NC(=O)CNC(=O)CNC(=O)[C@H](CCCCNC(=O)[C@H](CCCCNC(=O)[C@@H]1CCCN1C(=O)[C@@H](NC(=O)[C@H](CCCCN)NC(=O)[C@H](Cc1c[nH]c2ccccc12)NC(=O)[C@H](CC(C)C)NC(=O)CNC(=O)CNC(=O)[C@H](CCCNC(=N)N)NC(=O)[C@@H](N)CC(=O)O)[C@@H](C)O)NC(=O)[C@@H]1CCCN1C(=O)[C@@H](NC(=O)[C@H](CCCCN)NC(=O)[C@H](Cc1c[nH]c2ccccc12)NC(=O)[C@H](CC(C)C)NC(=O)CNC(=O)CNC(=O)[C@H](CCCNC(=N)N)NC(=O)[C@@H](N)CC(=O)O)[C@@H](C)O)NC(=O)[C@H](CCCCNC(=O)[C@@H]1CCCN1C(=O)[C@@H](NC(=O)[C@H](CCCCN)NC(=O)[C@H](Cc1c[nH]c2ccccc12)NC(=O)[C@H](CC(C)C)NC(=O)CNC(=O)CNC(=O)[C@H](CCCNC(=N)N)NC(=O)[C@@H](N)CC(=O)O)[C@@H](C)O)NC(=O)[C@@H]1CCCN1C(=O)[C@@H](NC(=O)[C@H](CCCCN)NC(=O)[C@H](Cc1c[nH]c2ccccc12)NC(=O)[C@H](CC(C)C)NC(=O)CNC(=O)CNC(=O)[C@H](CCCNC(=N)N)NC(=O)[C@@H](N)CC(=O)O)[C@@H](C)O)C(=O)O)C(=O)O)[C@@H](C)O [CEA-mimotope MAP]
[1]
  ADCC cytotoxicity: 50%
[2]; pooled fifth immune sera of immunized mice diluted 1:50
  CDC cytotoxicity: 100%
[2]; pooled fifth immune sera of immunized mice diluted 1:100
  CDC cytotoxicity: 51%
[3]
  cytotoxic reaction on CEA negative cells: no reaction

## C-RLALGDAKKY-C (CRLALGDAKKYC; disulfide 1-12; not fully specified; printed as C-RLALGDAKKY-C) [COL4, CEA mimotope selected from phage library with antibody Col-1]
[4]
  competition of phage-displayed mimotope with CEA for binding to Col-1: best candidate

B1: monoclonal antibody Col-1 (Zymed Lab., San Francisco, Calif.) (antibody, from another filing, V domains shown)
VH: EVQLQQSGAELVRSGASVKMSCTASGFNIKDYYMHWVKQRPEQGLEWIGWIDPENGDTEYAPKFQGKATMTTDTSSNTAYLQLSSLTSEDTAVYYCNTRGLSTMITTRWFFDVWGAGTTVAVSS
VL: DIVLTQSPASLTVSLGLRATISCRASKSVSASGYSYMHWYQQRPGQPPKLLIYLASNLQSGVPARFSGSGSGTDFTLNIHPVEEEDAATYYCQHSRELPTFGGGTKLEIK
[5]
  maximal signal (OD450-630 nm): 1.4 OD450-630 nm
